Data published in patent US8586588B2, “Aryl pyridazinone derivatives and their use as H3 receptor ligands” (Cephalon, Inc., priority 2006, dated 2013).

How the values were obtained:
human H3 receptor = target: T1, human H3 receptor (Homo sapiens, UniProt Q9Y5N1); assay: Human H3 radioligand binding ([3H]-N-alpha-methylhistamine, CHO cell membranes, SPA); details: Table B, binding constant as letter class
T1 construct: expressed in transfected cells
In short: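 CHO cell membranes expressing human H3 (10 μg protein/well) incubated 4 h at room temperature, in the dark, with ~1 nM [3H]-N-alpha-methylhistamine, compounds (0.01 nM-30 μM) and SPA beads in 50 mM Tris HCl pH 7.4, 5 mM MgCl2, 0.1% BSA. Non-specific binding defined with 10 μM clobenpropit.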

[1] = target: T2, rat histamine H3 receptor (Rattus norvegicus, UniProt Q9QYN8); assay: Rat H3 radioligand binding ([3H]-N-alpha-methylhistamine, CHO-A3 cell membranes, SPA); details: Table B, binding constant as letter class; read-out: rat H3 Ki
T2 construct: encoding the entire 445-amino-acid rat histamine H3 receptor; expressed in transfected cells
In short: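 Membranes from CHO-A3 cells stably expressing rat H3 (10 μg protein) incubated 4 h at room temperature in 50 mM Tris-HCl pH 7.4, 5 mM MgCl2, 0.1% BSA with ~1 nM [3H]-N-alpha-methylhistamine and compound (0.01 nM-30 μM). Bound radioligand read by scintillation proximity; nonspecific binding with 10 μM clobenpropit.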

T1 sequence (Q9Y5N1 whole entry): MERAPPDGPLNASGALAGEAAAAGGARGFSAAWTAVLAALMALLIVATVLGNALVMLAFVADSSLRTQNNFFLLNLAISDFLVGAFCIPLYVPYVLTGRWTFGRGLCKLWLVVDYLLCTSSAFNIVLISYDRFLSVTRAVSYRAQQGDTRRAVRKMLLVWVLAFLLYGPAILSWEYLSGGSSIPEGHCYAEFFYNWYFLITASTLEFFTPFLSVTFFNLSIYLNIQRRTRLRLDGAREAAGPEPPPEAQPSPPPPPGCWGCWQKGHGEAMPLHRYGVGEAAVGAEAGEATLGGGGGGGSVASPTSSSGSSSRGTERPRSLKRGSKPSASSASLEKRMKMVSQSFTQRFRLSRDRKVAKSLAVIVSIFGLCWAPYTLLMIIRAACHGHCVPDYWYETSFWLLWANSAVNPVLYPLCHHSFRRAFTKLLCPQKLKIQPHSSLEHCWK
T2 sequence (Q9QYN8 whole entry): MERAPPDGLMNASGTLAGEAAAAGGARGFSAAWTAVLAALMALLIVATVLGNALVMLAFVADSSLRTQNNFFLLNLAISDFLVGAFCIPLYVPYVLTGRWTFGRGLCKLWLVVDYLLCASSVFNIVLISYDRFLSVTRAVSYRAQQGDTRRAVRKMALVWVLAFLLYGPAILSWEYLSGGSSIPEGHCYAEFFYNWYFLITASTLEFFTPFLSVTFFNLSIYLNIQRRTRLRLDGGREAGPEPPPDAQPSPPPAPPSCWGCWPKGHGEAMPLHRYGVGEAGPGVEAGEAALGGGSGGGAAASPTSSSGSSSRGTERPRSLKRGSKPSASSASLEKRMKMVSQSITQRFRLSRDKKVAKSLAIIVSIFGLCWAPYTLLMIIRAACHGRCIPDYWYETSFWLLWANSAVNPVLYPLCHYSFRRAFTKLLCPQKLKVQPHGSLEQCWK

Row | Ki (human H3 receptor) [nM] | Ki [1] [nM] | melting point [°C] | SMILES
1 | 0.1 to 100 | 0.1 to 100 | > 300 | O=c1ccc(-c2ccc(OC3CCN(C4CCC4)CC3)cc2F)n[nH]1 [Example 221, 6-[4-(1-Cyclobutyl-piperidin-4-yloxy)-2-fluoro-phenyl]-2H-pyridazin-3-one]
2 | 0.1 to 100 | 0.1 to 100 | > 300 | Cc1cc(=O)[nH]nc1-c1ccc(OC2CCN(C3CCC3)CC2)cc1 [Example 222, 6-[4-(1-Cyclobutyl-piperidin-4-yloxy)-phenyl]-5-methyl-2H-pyridazin-3-one]
3 | 0.1 to 100 | 0.1 to 100 | 183 to 185 | COCn1ncc(-c2ccc(OCCCN3CCC[C@H]3C)cc2)cc1=O [Example 224, 2-Methoxymethyl-5-{4-[3-((R)-2-methyl-pyrrolidin-1-yl)-propoxy]-phenyl}-2H-pyridazin-3-one]
4 | 0.1 to 100 | 0.1 to 100 | 145 to 148 | C[C@H](COc1ccc(-c2cn[nH]c(=O)c2)cc1)CN1CCCCC1 [Example 227, 5-[4-((S)-2-Methyl-3-piperidin-1-yl-propoxy)-phenyl]-2H-pyridazin-3-one]
5 | 0.1 to 100 | 101 to 500 | 160 to 163 | C[C@@H](COc1ccc(-c2cn[nH]c(=O)c2)cc1)CN1CCCCC1 [Example 228, 5-[4-((R)-2-Methyl-3-piperidin-1-yl-propoxy)-phenyl]-2H-pyridazin-3-one]
6 | 0.1 to 100 | 501 to 1000 | 175 to 180 | C[C@@H]1CCCN1CCCOc1c(Br)cc(-c2cn[nH]c(=O)c2)cc1Br [Example 229]
7 | 0.1 to 100 | 101 to 500 | 112 to 113 | Cc1cc(OCCCN2CCCCC2)ccc1-c1cn[nH]c(=O)c1 [Example 233, 5-[2-Methyl-4-(3-piperidin-1-yl-propoxy)-phenyl]-2H-pyridazin-3-one]
8 | 0.1 to 100 | 0.1 to 100 | 154 to 157 | O=c1ccc(-c2ccc(OCCCN3CCCC3)cc2)n[nH]1 [Example 240, 6-[4-(3-Pyrrolidin-1-yl-propoxy)-phenyl]-2H-pyridazin-3-one]
9 | 101 to 500 | 101 to 500 | < 50 | CN(CCCOc1ccc(-c2ccc(=O)[nH]n2)cc1)C1CCC1 [Example 241, 6-{4-[3-(Cyclobutyl-methyl-amino)-propoxy]-phenyl}-2H-pyridazin-3-one]
10 | 0.1 to 100 | 101 to 500 | 95 to 98 | CN(CCCOc1ccc(-c2ccc(=O)[nH]n2)cc1)C1CCCC1 [Example 242, 6-{4-[3-(Cyclopentyl-methyl-amino)-propoxy]-phenyl}-2H-pyridazin-3-one]
11 | 0.1 to 100 | 0.1 to 100 | 79 to 81 | O=C1NN=C(c2ccc(OC3CCN(C4CCC4)CC3)cc2)C2CC12 (stereo not drawn) [Example 244, 5-[4-(1-Cyclobutyl-piperidin-4-yloxy)-phenyl]-3,4-diaza-bicyclo[4.1.0]hept-4-en-2-one]
12 | 0.1 to 100 | 0.1 to 100 | 112 to 115 | C[C@H](COc1ccc(C2=NNC(=O)C3CC23)cc1)CN1CCC[C@H]1C (stereo partly drawn) [Example 245]
13 | 101 to 500 | 101 to 500 | 185 | O=c1ccc(-c2ccc(OCC(O)CN3CCCCC3)cc2)n[nH]1 (stereo not drawn) [Example 255, 6-[4-(2-Hydroxy-3-piperidin-1-yl-propoxy)-phenyl]-2H-pyridazin-3-one]
14 | 0.1 to 100 | 101 to 500 | 153 | C[C@@H]1CCCN1CC(O)COc1ccc(-c2ccc(=O)[nH]n2)cc1 (stereo partly drawn) [Example 256, 6-{4-[2-Hydroxy-3-((R)-2-methyl-pyrrolidin-1-yl)-propoxy]-phenyl}-2H-pyridazin-3-one]
15 | 0.1 to 100 | 0.1 to 100 | 156 | C[C@@H]1CCCN1C[C@H](O)COc1ccc(-c2ccc(=O)[nH]n2)cc1 [Example 257, 6-{4-[(S)-2-Hydroxy-3-((R)-2-methyl-pyrrolidin-1-yl)-propoxy]-phenyl}-2H-pyridazin-3-one]
16 | 0.1 to 100 | 0.1 to 100 | 147 | C[C@@H]1CCCN1C[C@@H](O)COc1ccc(-c2ccc(=O)[nH]n2)cc1 [Example 258, 6-{4-[(R)-2-Hydroxy-3-((R)-2-methyl-pyrrolidin-1-yl)-propoxy]-phenyl}-2H-pyridazin-3-one]
17 | 101 to 500 | 101 to 500 | 167 | O=c1ccc(-c2ccc(OC[C@H](O)CN3CCCCC3)cc2)n[nH]1 [Example 259, 6-[4-((R)-2-Hydroxy-3-piperidin-1-yl-propoxy)-phenyl]-2H-pyridazin-3-one]
